Reference: patent EP0367895A1, “Pyrimidinyl-substituted hydroxyacids, lactones and esters and pharmaceutical compositions containing them” (SANDOZ AG, priority 1988, dated 1990)

Experiments:
[1] = test system: 3β-hydroxysterol synthesis; assay: Test B: in vivo cholesterol biosynthesis inhibition test (as described in EP 114 027); details: dose calculated to produce a 50% inhibition of 3β-hydroxysterol synthesis, test doses between 0.01 mg/kg and 10 mg/kg; for ED50: read-out: ED₅₀
Protocol: Test B. In vivo cholesterol biosynthesis inhibition test: as described in EP 114 027:
ED₅₀ is the dose of the test substance calculated to produce a 50% inhibition of 3β-hydroxysterol synthesis. The studies are run to test doses of between 0.01 mg/kg and 10 mg/kg.

[2] = target: T1, 3-hydroxy-3-methylglutaryl coenzyme A (HMG-CoA) reductase (Rattus norvegicus, UniProt P51639); assay: Test A: in vitro microsomal assay of HMG-CoA reductase inhibition (as described in EP 114 027); type: biochemical; details: concentration calculated to produce a 50% inhibition of HMG-CoA reductase activity; tests run between 0.05 µM and 1000 µM; read-out: IC₅₀
T1 construct: In vitro microsomal assay of; from tissue; host or cells: Microsomes; it is liver according to own knowledge of EP 114 027
T1 sequence (P51639 1-887): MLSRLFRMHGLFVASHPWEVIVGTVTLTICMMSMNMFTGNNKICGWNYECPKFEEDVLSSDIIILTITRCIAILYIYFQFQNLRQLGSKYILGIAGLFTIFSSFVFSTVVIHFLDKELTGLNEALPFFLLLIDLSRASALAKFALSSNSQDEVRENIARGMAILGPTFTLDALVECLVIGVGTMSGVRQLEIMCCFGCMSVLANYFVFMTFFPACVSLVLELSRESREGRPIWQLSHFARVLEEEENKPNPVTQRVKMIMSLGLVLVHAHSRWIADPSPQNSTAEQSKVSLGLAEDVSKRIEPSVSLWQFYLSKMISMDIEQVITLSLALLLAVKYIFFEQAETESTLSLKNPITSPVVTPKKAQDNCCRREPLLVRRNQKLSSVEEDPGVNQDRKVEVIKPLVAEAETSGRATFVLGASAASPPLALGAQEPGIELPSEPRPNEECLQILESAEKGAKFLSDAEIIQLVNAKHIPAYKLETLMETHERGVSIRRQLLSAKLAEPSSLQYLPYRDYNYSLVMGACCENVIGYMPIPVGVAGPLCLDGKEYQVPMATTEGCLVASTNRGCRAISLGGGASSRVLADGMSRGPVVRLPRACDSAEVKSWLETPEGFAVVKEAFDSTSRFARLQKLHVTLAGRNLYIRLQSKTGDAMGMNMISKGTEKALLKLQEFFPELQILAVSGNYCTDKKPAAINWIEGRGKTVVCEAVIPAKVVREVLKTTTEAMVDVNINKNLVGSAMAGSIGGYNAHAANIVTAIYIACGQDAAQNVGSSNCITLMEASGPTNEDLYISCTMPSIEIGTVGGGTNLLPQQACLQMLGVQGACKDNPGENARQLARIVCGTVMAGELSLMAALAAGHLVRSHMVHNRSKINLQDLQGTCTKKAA
Protocol: Test A. In vitro microsomal assay of 3-hydroxy-3-methylglutaryl coenzyme A (HMG-CoA) reductase inhibition: as described in EP 114 027:
IC₅₀ is the concentration of the test substance in the assay system calculated to produce a 50% inhibition of HMG-CoA reductase activity. The tests are run at concentrations of test substance between 0.05 µM and 1000 µM.

Q: Mevinolin [reference compound] was tested. Which ED₅₀ [1] did it give?
A: The ED₅₀ was 0.41 mg/kg.

Q: `CC(C)c1nc(N(C)C)nc(-c2ccc(F)cc2)c1/C=C/[C@@H](O)C[C@@H](O)CC(=O)[O-].[Na+]` [Example 1b), sodium (3R,5S)-[E]-7-[4-(4-fluoro-phenyl)-6-(1-methylethyl)-2-(dimethylamino)pyrimidin-5-yl]-3,5-dihydroxy-6-heptenoate] was tested. Which IC50 [2] did it give?
A: The IC50 was 26 nM.

Q: And the ED50 [1]?
A: The ED50 was 0.028 mg/kg.

Q: For `CC(C)c1nc(N(C)C)nc(-c2ccncc2)c1/C=C/[C@@H](O)C[C@@H](O)CC(=O)O` [Example 11d], which IC50 [2] is on record?
A: Its IC50 is 39 nM.

Q: What about the ED50 [1] of the same molecule?
A: Its ED50 is 0.04 mg/kg.
